Experimental data from PubChem BioAssay (NCI).
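Test compounds were applied to cells in 96-well plates for 48 hours at 5 doses. GI50 = concentration required for 50% inhibition of growth. TGI denotes the concentration required for complete inhibition of growth.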

What was measured:
Assay in all cases: NCI-60 cell line screen, 48 h
[1] = test system: UACC-257 melanoma
[2] = test system: OVCAR-3 ovarian
[3] = test system: SK-OV-3 ovarian
[4] = test system: U251 CNS
[5] = test system: NCI/ADR-RES ovarian
[6] = test system: BT-549 breast
[7] = test system: HCT-116 colon
[8] = test system: OVCAR-8 ovarian
[9] = test system: SK-MEL-2 melanoma
[10] = test system: SF-539 CNS
[11] = test system: NCI-H460 lung
[12] = test system: A549 NSCLC
[13] = test system: M14 melanoma
[14] = test system: HCC-2998 colon
[15] = test system: OVCAR-5 ovarian
[16] = test system: MOLT-4 leukemia
[17] = test system: SN12C renal
[18] = test system: SF-295 CNS
[19] = test system: LOX IMVI melanoma
[20] = test system: MDA-MB-231 breast
[21] = test system: T-47D breast
[22] = test system: SNB-75 CNS
[23] = test system: HS 578T breast
[24] = test system: ACHN renal
[25] = test system: HT29 colon
[26] = test system: UO-31 renal
[27] = test system: 786-0 renal
[28] = test system: NCI-H522 lung
[29] = test system: MCF7 breast
[30] = test system: DU-145 prostate
[31] = test system: KM12 colon
[32] = test system: SK-MEL-28 melanoma
[33] = test system: RXF 393 renal
[34] = test system: A498 renal
[35] = test system: SW-620 colon
[36] = test system: HCT-15 colon
[37] = test system: HOP-92 NSCLC
[38] = test system: MDA-MB-435
[39] = test system: RPMI-8226 leukemia
[40] = test system: K-562 leukemia
[41] = test system: IGROV1 ovarian
[42] = test system: TK-10 renal
[43] = test system: HOP-62 NSCLC
[44] = test system: SF-268 CNS
[45] = test system: HL-60(TB) leukemia
[46] = test system: COLO 205 colon
[47] = test system: UACC-62 melanoma
[48] = test system: MALME-3M melanoma
[49] = test system: OVCAR-4 ovarian
[50] = test system: SK-MEL-5 melanoma
[51] = test system: CAKI-1 renal

Which GI50 [1] does the source give for `Clc1ccc(-c2cc(-c3ccccc3)nc(N3CCN(CCCNc4ccnc5cc(Cl)ccc45)CC3)n2)cc1` here?
Its GI50 is 1930 nM.

What about the TGI [1] of the same compound?
Its TGI is 3890 nM.

What about the GI50 [2] of the same compound?
Its GI50 is 1550 nM.

And the TGI [2]?
The TGI was 2980 nM.

What about the GI50 [3] of the same compound?
The GI50 was 1740 nM.

What about the TGI [3] of the same compound?
Its TGI is 3170 nM.

And the GI50 [4]?
Its GI50 is 1290 nM.

And the TGI [4]?
The TGI was 2630 nM.

What about the GI50 [5] of the same compound?
The GI50 was 1750 nM.

And the TGI [5]?
The TGI was 3530 nM.

And the GI50 [6]?
The GI50 was 1680 nM.

And the TGI [6]?
The TGI was 3230 nM.

What about the GI50 [7] of the same compound?
The GI50 was 934 nM.

What about the TGI [7] of the same compound?
Its TGI is 2220 nM.

What about the GI50 [8] of the same compound?
The GI50 was 1150 nM.

What about the TGI [8] of the same compound?
The TGI was 2930 nM.

What about the GI50 [9] of the same compound?
The GI50 was 1820 nM.

What about the TGI [9] of the same compound?
The TGI was 3390 nM.

And the GI50 [10]?
Its GI50 is 1790 nM.

What about the TGI [10] of the same compound?
Its TGI is 3250 nM.

What about the GI50 [11] of the same compound?
Its GI50 is 1560 nM.

What about the TGI [11] of the same compound?
Its TGI is 3100 nM.

And the GI50 [12]?
Its GI50 is 1770 nM.

And the TGI [12]?
Its TGI is 3750 nM.

What about the GI50 [13] of the same compound?
Its GI50 is 1870 nM.

And the TGI [13]?
The TGI was 3530 nM.

What about the GI50 [14] of the same compound?
Its GI50 is 1560 nM.

And the TGI [14]?
The TGI was 3020 nM.

And the GI50 [15]?
The GI50 was 1660 nM.

What about the TGI [15] of the same compound?
Its TGI is 3080 nM.

What about the GI50 [16] of the same compound?
The GI50 was 1220 nM.

What about the TGI [16] of the same compound?
Its TGI is 4350 nM.

What about the GI50 [17] of the same compound?
The GI50 was 1420 nM.

What about the TGI [17] of the same compound?
The TGI was 2840 nM.

What about the GI50 [18] of the same compound?
Its GI50 is 1860 nM.

What about the TGI [18] of the same compound?
The TGI was 3720 nM.

And the GI50 [19]?
The GI50 was 1750 nM.

What about the TGI [19] of the same compound?
The TGI was 3190 nM.

What about the GI50 [20] of the same compound?
Its GI50 is 1670 nM.

And the TGI [20]?
Its TGI is 3190 nM.

And the GI50 [21]?
The GI50 was 1140 nM.

What about the TGI [21] of the same compound?
The TGI was 3380 nM.

What about the GI50 [22] of the same compound?
The GI50 was 1490 nM.

What about the TGI [22] of the same compound?
The TGI was 2850 nM.

What about the GI50 [23] of the same compound?
Its GI50 is 1860 nM.

And the TGI [23]?
The TGI was 4380 nM.

And the GI50 [24]?
Its GI50 is 1610 nM.

What about the TGI [24] of the same compound?
The TGI was 2960 nM.

And the GI50 [25]?
The GI50 was 464 nM.

And the TGI [25]?
The TGI was 1760 nM.

And the GI50 [26]?
Its GI50 is 1550 nM.

And the TGI [26]?
Its TGI is 2900 nM.

And the GI50 [27]?
Its GI50 is 1470 nM.

And the TGI [27]?
The TGI was 2840 nM.

What about the GI50 [28] of the same compound?
Its GI50 is 1780 nM.

And the TGI [28]?
Its TGI is 3540 nM.

What about the GI50 [29] of the same compound?
The GI50 was 1630 nM.

And the TGI [29]?
Its TGI is 3810 nM.

And the GI50 [30]?
Its GI50 is 1520 nM.

And the TGI [30]?
Its TGI is 2940 nM.

What about the GI50 [31] of the same compound?
Its GI50 is 1680 nM.

And the TGI [31]?
The TGI was 3200 nM.

What about the GI50 [32] of the same compound?
The GI50 was 1720 nM.

And the TGI [32]?
The TGI was 3140 nM.

And the GI50 [33]?
The GI50 was 1250 nM.

And the TGI [33]?
Its TGI is 2580 nM.

And the GI50 [34]?
The GI50 was 1480 nM.

What about the TGI [34] of the same compound?
The TGI was 2810 nM.

And the GI50 [35]?
The GI50 was 1420 nM.

What about the TGI [35] of the same compound?
The TGI was 3060 nM.

And the GI50 [36]?
The GI50 was 779 nM.

And the TGI [36]?
Its TGI is 2480 nM.

What about the GI50 [37] of the same compound?
The GI50 was 1210 nM.

What about the TGI [37] of the same compound?
The TGI was 2600 nM.

What about the GI50 [38] of the same compound?
The GI50 was 1730 nM.

And the TGI [38]?
Its TGI is 3160 nM.

What about the GI50 [39] of the same compound?
The GI50 was 1740 nM.

What about the TGI [39] of the same compound?
Its TGI is 4410 nM.

And the GI50 [40]?
Its GI50 is 461 nM.

What about the TGI [40] of the same compound?
Its TGI is 2310 nM.

What about the GI50 [41] of the same compound?
Its GI50 is 1450 nM.

And the TGI [41]?
Its TGI is 2890 nM.

What about the GI50 [42] of the same compound?
Its GI50 is 1750 nM.

What about the TGI [42] of the same compound?
The TGI was 3260 nM.

What about the GI50 [43] of the same compound?
The GI50 was 1200 nM.

What about the TGI [43] of the same compound?
Its TGI is 2780 nM.

And the GI50 [44]?
Its GI50 is 1730 nM.

What about the TGI [44] of the same compound?
Its TGI is 3640 nM.

And the GI50 [45]?
Its GI50 is 1000 nM.

And the TGI [45]?
The TGI was 2830 nM.

What about the GI50 [46] of the same compound?
The GI50 was 1870 nM.

What about the TGI [46] of the same compound?
Its TGI is 3700 nM.

And the GI50 [47]?
Its GI50 is 1790 nM.

And the TGI [47]?
The TGI was 3250 nM.

What about the GI50 [48] of the same compound?
The GI50 was 1810 nM.

What about the TGI [48] of the same compound?
The TGI was 3350 nM.

And the GI50 [49]?
The GI50 was 1160 nM.

What about the TGI [49] of the same compound?
The TGI was 2610 nM.

What about the GI50 [50] of the same compound?
The GI50 was 1670 nM.

What about the TGI [50] of the same compound?
Its TGI is 3060 nM.

And the GI50 [51]?
Its GI50 is 1660 nM.

What about the TGI [51] of the same compound?
Its TGI is 3130 nM.
